Data: patent US20130085260A1, “METHOD FOR THE IDENTIFICATION OF T CELL EPITOPES” (CENTRE H[…] L'UNIVERSITE DE MONTREAL, priority 2010, published 2013)

Tests used:
Format in all cases: cell-based, human
M1-CD4 T cell clone = assay: IFN-γ secretion (ELISA) by M1-CD4 T cell clone co-cultured with peptide-pulsed EBV-B cells; settings: EBV-B cells pulsed with synthetic peptide; HLA-DR-restricted
Method: Antigen-specific bulk T cells from peripheral blood mononuclear cells stimulated with autologous CD4O-B cells electroporated with M1 or NP DNA plasmids were cloned by limiting dilution and cultured as previously described.^8
Synthetic peptides were added to EBV-B cells at a final concentration of 1 to 10 μg/mL for MHC class 110-mer peptides (50 μg/mL for longer peptides) (Table 2) for 3 hours at 37° C. 5% CO2, and then washed once to remove unbound peptides. T-cell clones were washed and cultured for 4 hours in Iscove's complete medium supplemented with 120 IU/ml of interleukin-2 (IL-2). T cell clones' reactivity to MHC-restricted epitopes was tested on the basis of interferon-γ cytokine secretion as described previously.^7

NP-CD8 T cell clone = settings: EBV-B cells pulsed with synthetic peptide, 1 to 10 μg/mL for 10-mer, 50 μg/mL for longer peptides, 3 hours
[1] = test system: M1^58-66-specific T cells (M1-CD8); settings: EBV-B cells pulsed with peptide; negative specificity control

Row | Sequence | recognition by M1-CD4 T cell clone (IFN-γ production) (M1-CD4 T cell clone) | recognition by NP-CD8 T cell clone (IFN-γ production) (NP-CD8 T cell clone) | also measured
1 | YRKLKREITF | specifically recognized | – | –
2 | NGNGDPNNMDKAVKL [Peptide b] | weakly recognized | – | –
3 | LSAFDERRNKYLEEHPSAG [Peptide 1-6] | – | well recognized | –
4 | IMDQVPFSV [gp100^209-218 peptide] | – | – | recognition by M1^58-66-specific T cells (IFN-γ production) [1]: did not recognize
5 | AFDERRNKYL [Peptide 2] | – | more weakly but nevertheless specifically recognized | –
